Laboratory results: patent US20070287680A1, “Combined Active and Passive Targeting of Biologically Active Agents” (University of Utah Research Foundation, priority 2004, published 2007)
Entries after “also recorded” stand apart in the source; their conditions may differ.

What was measured:
Assay type in all cases: cell-based
[1] = molecular target: T1, green fluorescent protein tagged-GR (GFP-GR) (Rattus norvegicus, UniProt P06536, C656G); test: GFP-GR system, biorecognition (nuclear translocation of GFP tagged GR); conditions: fluorescence microscopy, 37° C., Mce6 at 20 μM and 30 μM, images up to 30 minutes
T1 construct: expressed in transfected cells
T1 sequence (P06536 1-795 C656G): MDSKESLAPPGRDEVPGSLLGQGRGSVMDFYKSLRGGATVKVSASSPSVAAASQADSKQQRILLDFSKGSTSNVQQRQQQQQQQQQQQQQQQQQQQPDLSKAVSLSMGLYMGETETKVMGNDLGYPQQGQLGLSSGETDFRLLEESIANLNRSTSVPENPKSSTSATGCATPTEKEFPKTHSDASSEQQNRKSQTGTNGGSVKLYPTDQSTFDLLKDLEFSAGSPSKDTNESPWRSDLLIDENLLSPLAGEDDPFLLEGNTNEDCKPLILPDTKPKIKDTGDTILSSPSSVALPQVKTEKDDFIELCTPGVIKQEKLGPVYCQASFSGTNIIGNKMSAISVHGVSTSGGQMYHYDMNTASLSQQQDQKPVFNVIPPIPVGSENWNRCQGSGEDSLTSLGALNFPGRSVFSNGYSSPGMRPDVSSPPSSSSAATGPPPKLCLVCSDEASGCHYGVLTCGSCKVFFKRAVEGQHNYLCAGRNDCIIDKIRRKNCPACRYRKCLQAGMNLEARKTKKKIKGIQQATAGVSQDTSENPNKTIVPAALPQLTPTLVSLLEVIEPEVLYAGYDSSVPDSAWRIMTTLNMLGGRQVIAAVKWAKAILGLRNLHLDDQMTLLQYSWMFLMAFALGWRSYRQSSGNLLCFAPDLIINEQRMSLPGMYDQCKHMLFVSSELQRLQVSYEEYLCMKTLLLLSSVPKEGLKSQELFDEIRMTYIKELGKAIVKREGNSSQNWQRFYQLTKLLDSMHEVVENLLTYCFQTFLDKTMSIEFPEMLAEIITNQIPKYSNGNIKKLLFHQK
Experimental: This system involves the generation of GFP labeled GR in the cell. The cells are then treated with the drug and the change in the localization of the fluorescently tagged GR is followed. Cells were transfected with GFP-GR plasmids as previously. Briefly, 5×10^6 cells were transfected with 2 μg of the GFP-GR plasmid plus carrier DNA using an Electrosquare porator ECM 830 system (BTX, San Diego, Calif.). The electroporation was performed using 3 pulses each of 135 V for 10 milliseconds, […]. Cells were allowed to recover on ice for 5 minutes and were then diluted with phenol red-free DMEM with 10% charcoal stripped FBS and plated on a clear cover glass (Corning no. 1, 22 mm^2) into live cell chambers (Lab-Tek II chambered cover glass with cover). These cells were incubated in cell culture conditions for 24 hrs. […] The import of GFP-receptor-conjugate complexes was monitored using an Olympus IX701F inverted fluorescence microscope and an EGFP filter set (Chroma Technology Corp.) (exciter 480 nm, emitter 510 nm, beam splitter 495 nm). Cells were maintained at 37° C. using a Nevtek ASI 400 Air Stream Incubator (variable temperature control) attached to a temperature probe as previously. Cells were photographed using an F-View Monochrome CCD camera.

[2] = system: nucleus (DAPI nuclear marker); test: Confocal fluorescence microscopy, subcellular localization; conditions: 24 hours incubation at 37° C.
Experimental: Subcellular localization was determined using confocal fluorescence microscopy. 150000 cells were seeded on previously sterilized glass coverslips in 35 mm dishes 24 hours before incubation with the drug. […] The cells were then fixed with 3% paraformaldehyde for 20 minutes at room temperature. DAPI (4′,6-diamidino-2-phenylindole) (600 nM) was incubated with the cells and used as a nuclear marker. The cells were mounted with SlowFade Light Antifade medium (Molecular Probes, Eugene, Oreg.) and sealed as described previously. The cells were then imaged on a Zeiss (Thornwood, N.Y.) LSM 510 confocal imaging system with an Axioplan 2 microscope (100× plan-apo objective, NA=1.4, oil) and a titanium sapphire multiphoton laser (mesochlorin, excitation 800 nm, emission 650 nm low pass filter; DAPI, excitation 800 nm, emission 461 nm band pass filter). The settings for all the confocal systems were adjusted so that control cells yielded dark images.
In these images, DAPI is represented by […] fluorescence. […] Mce6 is stained red in color. […] These two windows separately indicate the subcellular localization of Mce6 and DAPI respectively. These 2 windows are superimposed in window D to display a composite image.

[3] = system: murine adenocarcinoma (1471.1) cells; test: Cytotoxicity after illumination, WST-8 assay; conditions: incubated 4 hours, DMEM with 10% charcoal stripped FBS, illuminated 30 min, Mce6 equivalents, read-out: IC50 (μM) (Mean ± SD)
Experimental: The IC50 (concentration that inhibits growth by 50%) was determined utilizing a WST-8 assay. Four thousand cells were seeded into 96 well plates and incubated overnight in a humidified atmosphere containing 5% CO2. […] The incubation period was 10 hours in the case of the HPMA copolymer-bound Mce6 conjugates. After the period of incubation, the media containing the drug was removed and 100 μL of fresh media was added and the cells were promptly illuminated for 30 min. The light source was three ENH Tungsten halogen lamps (120 V/250 W) placed in parallel, attenuated by three band-pass interference filters (Melles Griot Co., Carlsbad, Calif.). The light energy was approximately 2 mW cm^−2 as determined using a radiometer.
After illumination, the cells were incubated in a humidified atmosphere containing 5% CO2 for 24 hours. The media was replaced with 100 μL fresh media containing 10 μL of WST-8. After two hours incubation, the absorbance was read at 450 nm with background correction at 630 nm. Untreated cells served as 100% viable cells, whereas media served as background. Percentage of viable cells was calculated by dividing the mean absorbance of each well by the absorbance of the untreated cells. Linear regression was performed utilizing the linear portion of the growth inhibition curve to determine the IC50 dose.

GR = test: MMTV luciferase assay; conditions: data not shown
[4] = listed as Cort-Lys-Mce6 derivative

Row | Substance | redistribution of GFP tagged GR from the cytoplasm to the nucleus ([1]; disodium salt) | subcellular localization of Mce6 fluorescence ([2]; disodium salt) | IC50 [3] [µM] | redistribution of GFP tagged GR from the cytoplasm to the nucleus [1] | redistribution of GFP tagged GR from the cytoplasm to the nucleus [1, 4] | subcellular localization of Mce6 fluorescence [2] | subcellular localization of Mce6 fluorescence [2, 4] | ability to bind the GR and induce nuclear translocation (GR)
1 | Mesochlorin e6 monoethylene diamine disodium salt [Mce6, reference compound] | cannot cause redistribution of the GFP tagged GR; also recorded: did not induce any change in the localization of the receptors | faint Mce6 fluorescence in the nucleus; also recorded: predominantly located in the cytoplasm | 5.3 ± 0.93 |  |  |  |  | 
2 | alpha-N-(Cortisol-C17-carbamoyl)-Lysyl-Mesochlorin ethyl amide [Cort-Lys-Mce6] |  |  | 1.96 ± 0.17 | increase in the fluorescence level in the nucleus | able to shuttle GFP tagged GR from the cytoplasm to the nucleus | located in the cytoplasm and in the nucleus | colocalization of Mce6 and DAPI | independently verified
